Experimental data taken from article PMC6485449 (Clinical cancer research : an official journal of the …, 2013).
Several values for one entry are separate records, joined by “and”; a condition that tells them apart may be missing. Equal entries are not always repeated. Entries after “also recorded” stand apart in the source; their conditions may differ. Where two headings read alike, the source gives them in different places.

Columns and labels:
MDA-MB-231 = experiment: Single-agent 2-D cytotoxicity assay, MDA-MB-231; format: cell-based; settings: Homo sapiens, MDA-MB-231, read-out: SF50 MDA-MB-231
recombinant human PARP1 = recombinant human PARP1 (Homo sapiens, UniProt P09874); settings: for off-rate / on-rate: immobilized rhPARP1, Biacore T200
LNCap xenograft = experiment: LNCap xenograft, single agent; format: in vivo, mice; settings: 0.33 mg/kg oral QDx28, vs vehicle-treated control
[1] = system: Capan-1 (BRCA2 deficient); experiment: Single-agent cytotoxicity assay, Capan-1; format: cell-based, human
CYP2C19 = CYP2C19 (Homo sapiens, UniProt P33261); experiment: CYP450 inhibition, CYP2C19; format: in vitro ADME; settings: concentrations up to 10 μM; data not shown
MRC-5 (Normal) = experiment: Single-agent 2-D cytotoxicity assay, MRC-5; format: cell-based, human
MX-1 tumor xenografts [2] = experiment: Carboplatin combination study, MX-1 xenograft; format: in vivo, mice
[3] = Combination with platinum drugs in vitro; format: cell-based; settings: data not shown
[4] = Liver microsome stability, rat; format: in vitro ADME; settings: rats, two hours, 1 μM
CYP3A4 = CYP3A4 (Homo sapiens, UniProt P08684); experiment: CYP450 inhibition, CYP3A4; format: in vitro ADME; settings: concentrations up to 10 μM; data not shown
[5] = biological target: Poly (ADP-ribose) Glycohydrolase (PARG) (Homo sapiens, UniProt Q86W56); experiment: PARG activity assay; format: biochemical; settings: concentrations up to 1 μM; data not shown
MX-1 cells = experiment: SN-38 chemo-sensitization assay; format: cell-based, human; settings: MX-1 cells in vitro, 5 days
[6] = system: PAR synthesis in LoVo cells; experiment: Intracellular PAR formation assay; format: cell-based; settings: Homo sapiens
MX-1 tumor xenografts [7] = experiment: MX-1 xenograft, single agent; format: in vivo, mice
[8] = Liver microsome stability, human; format: in vitro ADME; settings: humans, two hours, 1 μM
PC-3 (PTEN deficient) = experiment: Single-agent 2-D cytotoxicity assay, PC-3; format: cell-based; settings: Homo sapiens, read-out: SF50 PC-3 (PTEN deficient)
MDA-MB-468 xenograft = experiment: MDA-MB-468 xenograft, single agent; format: in vivo, mice
CYP2D6 = CYP2D6 (Homo sapiens, UniProt P10635); experiment: CYP450 inhibition, CYP2D6; format: in vitro ADME; settings: concentrations up to 10 μM; data not shown
MX-1 tumor PAR levels = experiment: PAR assay in vivo; set-up: species or system mice
[9] = biological target: potassium ion channel hERG (Homo sapiens, UniProt Q12809); experiment: hERG in vitro assay; settings: concentrations as high as 100 μM
MX-1 tumor xenografts [10] = experiment: Cisplatin combination study, MX-1 xenograft; format: in vivo, mice
CYP2C9 = CYP2C9 (Homo sapiens, UniProt P11712); experiment: CYP450 inhibition, CYP2C9; format: in vitro ADME; settings: concentrations up to 10 μM; data not shown
LoVo cells = experiment: Temozolomide potentiation; format: cell-based, human
CYP1A2 = biological target: T1, CYP1A2 (Homo sapiens, UniProt P05177); experiment: CYP450 inhibition, CYP1A2; format: in vitro ADME; settings: concentrations up to 10 μM; data not shown
T1 sequence (P05177 1-516): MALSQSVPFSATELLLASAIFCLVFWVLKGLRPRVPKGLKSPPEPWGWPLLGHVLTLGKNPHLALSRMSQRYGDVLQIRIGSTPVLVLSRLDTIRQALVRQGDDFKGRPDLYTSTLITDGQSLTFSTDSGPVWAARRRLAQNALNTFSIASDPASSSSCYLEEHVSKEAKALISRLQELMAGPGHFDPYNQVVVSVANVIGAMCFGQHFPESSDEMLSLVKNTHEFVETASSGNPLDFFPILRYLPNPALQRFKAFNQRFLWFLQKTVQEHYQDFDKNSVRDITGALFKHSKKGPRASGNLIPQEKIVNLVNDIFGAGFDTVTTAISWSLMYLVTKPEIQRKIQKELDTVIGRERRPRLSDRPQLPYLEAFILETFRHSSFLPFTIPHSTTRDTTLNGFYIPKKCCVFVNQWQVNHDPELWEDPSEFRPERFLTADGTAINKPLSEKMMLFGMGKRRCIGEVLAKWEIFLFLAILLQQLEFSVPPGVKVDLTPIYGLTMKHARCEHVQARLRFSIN

[11] = Liver microsome stability, dog; format: in vitro ADME; settings: dogs, two hours, 1 μM
[12] = Homo sapiens, CAPAN-1, read-out: Capan-1 Cytotoxicity IC50
[13] = Homo sapiens, CAPAN-1, read-out: SF50 Capan-1 (BRCA2 deficient)
[14] = Homo sapiens, MRC5, read-out: SF50 MRC-5 (Normal)
[15] = 2 hours after single oral dose (BMN 673 1 mg/kg; olaparib 100 mg/kg)
[16] = 8 hours after single oral dose (BMN 673 1 mg/kg; olaparib 100 mg/kg)
[17] = 24 hours after single oral dose (BMN 673 1 mg/kg; olaparib 100 mg/kg)

Chain of recombinant human PARP1 (P09874 662-1011): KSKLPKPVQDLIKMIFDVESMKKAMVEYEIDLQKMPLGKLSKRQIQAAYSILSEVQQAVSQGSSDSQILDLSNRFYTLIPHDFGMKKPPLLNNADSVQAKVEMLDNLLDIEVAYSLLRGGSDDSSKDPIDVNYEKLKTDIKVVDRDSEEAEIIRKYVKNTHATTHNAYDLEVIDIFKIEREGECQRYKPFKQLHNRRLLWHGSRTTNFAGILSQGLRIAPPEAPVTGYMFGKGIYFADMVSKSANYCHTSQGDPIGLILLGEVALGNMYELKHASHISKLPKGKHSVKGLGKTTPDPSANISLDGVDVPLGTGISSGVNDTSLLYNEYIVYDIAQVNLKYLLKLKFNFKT
Chain of CYP2D6 (P10635 whole entry): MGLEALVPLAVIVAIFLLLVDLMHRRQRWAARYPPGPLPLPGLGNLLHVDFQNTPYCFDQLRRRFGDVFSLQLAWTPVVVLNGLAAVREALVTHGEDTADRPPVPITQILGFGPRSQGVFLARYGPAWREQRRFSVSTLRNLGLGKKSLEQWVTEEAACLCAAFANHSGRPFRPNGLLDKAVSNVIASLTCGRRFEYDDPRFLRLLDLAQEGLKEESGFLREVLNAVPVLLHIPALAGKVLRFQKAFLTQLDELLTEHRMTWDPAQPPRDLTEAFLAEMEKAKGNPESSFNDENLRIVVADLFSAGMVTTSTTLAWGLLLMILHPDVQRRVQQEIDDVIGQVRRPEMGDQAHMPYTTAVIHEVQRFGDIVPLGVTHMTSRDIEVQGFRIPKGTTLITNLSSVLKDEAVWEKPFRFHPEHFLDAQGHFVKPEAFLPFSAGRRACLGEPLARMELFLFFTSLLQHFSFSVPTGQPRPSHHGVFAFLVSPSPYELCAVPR
Chain of CYP3A4 (P08684 whole entry): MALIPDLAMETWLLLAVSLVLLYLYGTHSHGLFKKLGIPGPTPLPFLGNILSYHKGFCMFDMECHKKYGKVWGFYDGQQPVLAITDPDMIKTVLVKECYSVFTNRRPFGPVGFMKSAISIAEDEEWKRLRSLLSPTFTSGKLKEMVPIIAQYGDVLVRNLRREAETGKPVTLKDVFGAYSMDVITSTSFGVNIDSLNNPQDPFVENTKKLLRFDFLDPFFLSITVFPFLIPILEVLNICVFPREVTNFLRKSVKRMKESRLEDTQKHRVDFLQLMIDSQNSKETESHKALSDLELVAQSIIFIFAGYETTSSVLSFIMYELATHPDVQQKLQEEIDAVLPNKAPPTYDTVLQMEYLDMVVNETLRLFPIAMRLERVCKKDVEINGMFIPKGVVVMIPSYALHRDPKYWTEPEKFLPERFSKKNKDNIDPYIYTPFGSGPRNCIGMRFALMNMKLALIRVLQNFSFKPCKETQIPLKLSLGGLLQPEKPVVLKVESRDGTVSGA
Chain of CYP2C19 (P33261 whole entry): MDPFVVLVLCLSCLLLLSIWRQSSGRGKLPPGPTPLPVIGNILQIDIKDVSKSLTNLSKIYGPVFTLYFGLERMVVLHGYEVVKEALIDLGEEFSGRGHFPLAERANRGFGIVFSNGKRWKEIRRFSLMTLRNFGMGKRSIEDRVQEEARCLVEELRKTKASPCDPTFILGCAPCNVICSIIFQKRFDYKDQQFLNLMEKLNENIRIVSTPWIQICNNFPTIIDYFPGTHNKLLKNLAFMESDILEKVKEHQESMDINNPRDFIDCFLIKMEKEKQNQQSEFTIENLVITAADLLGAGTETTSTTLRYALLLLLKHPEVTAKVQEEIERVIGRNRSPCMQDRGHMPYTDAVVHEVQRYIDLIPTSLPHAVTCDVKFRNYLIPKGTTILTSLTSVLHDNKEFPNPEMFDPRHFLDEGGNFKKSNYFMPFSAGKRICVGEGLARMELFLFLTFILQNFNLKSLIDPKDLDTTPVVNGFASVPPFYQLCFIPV
Chain of Poly (ADP-ribose) Glycohydrolase (PARG) (Q86W56 whole entry, species assumed): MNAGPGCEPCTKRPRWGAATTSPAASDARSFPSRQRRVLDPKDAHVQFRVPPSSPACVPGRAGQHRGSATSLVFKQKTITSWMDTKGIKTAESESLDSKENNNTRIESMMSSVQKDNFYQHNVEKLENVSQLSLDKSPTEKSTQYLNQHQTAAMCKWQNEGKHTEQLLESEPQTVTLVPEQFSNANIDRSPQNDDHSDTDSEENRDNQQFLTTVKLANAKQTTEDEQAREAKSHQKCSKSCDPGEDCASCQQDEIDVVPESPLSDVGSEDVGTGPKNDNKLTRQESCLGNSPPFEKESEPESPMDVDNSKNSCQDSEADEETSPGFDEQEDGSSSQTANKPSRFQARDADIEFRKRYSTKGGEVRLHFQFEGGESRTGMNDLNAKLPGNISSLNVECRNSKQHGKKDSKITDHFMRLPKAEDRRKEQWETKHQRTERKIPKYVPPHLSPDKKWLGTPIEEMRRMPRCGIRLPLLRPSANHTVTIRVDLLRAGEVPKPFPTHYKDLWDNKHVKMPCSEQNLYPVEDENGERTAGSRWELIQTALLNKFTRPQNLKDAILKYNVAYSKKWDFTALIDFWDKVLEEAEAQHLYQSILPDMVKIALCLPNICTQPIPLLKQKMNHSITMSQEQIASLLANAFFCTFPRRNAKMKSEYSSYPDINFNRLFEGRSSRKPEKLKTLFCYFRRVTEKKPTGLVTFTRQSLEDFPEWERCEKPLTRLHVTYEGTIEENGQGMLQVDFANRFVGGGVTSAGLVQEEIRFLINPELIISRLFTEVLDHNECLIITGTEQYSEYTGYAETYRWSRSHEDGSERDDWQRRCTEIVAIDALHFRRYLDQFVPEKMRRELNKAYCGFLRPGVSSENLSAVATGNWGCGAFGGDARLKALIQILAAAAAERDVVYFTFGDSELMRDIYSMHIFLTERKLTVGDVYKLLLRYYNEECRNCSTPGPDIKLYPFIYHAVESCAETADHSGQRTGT
Chain of potassium ion channel hERG (Q12809 whole entry): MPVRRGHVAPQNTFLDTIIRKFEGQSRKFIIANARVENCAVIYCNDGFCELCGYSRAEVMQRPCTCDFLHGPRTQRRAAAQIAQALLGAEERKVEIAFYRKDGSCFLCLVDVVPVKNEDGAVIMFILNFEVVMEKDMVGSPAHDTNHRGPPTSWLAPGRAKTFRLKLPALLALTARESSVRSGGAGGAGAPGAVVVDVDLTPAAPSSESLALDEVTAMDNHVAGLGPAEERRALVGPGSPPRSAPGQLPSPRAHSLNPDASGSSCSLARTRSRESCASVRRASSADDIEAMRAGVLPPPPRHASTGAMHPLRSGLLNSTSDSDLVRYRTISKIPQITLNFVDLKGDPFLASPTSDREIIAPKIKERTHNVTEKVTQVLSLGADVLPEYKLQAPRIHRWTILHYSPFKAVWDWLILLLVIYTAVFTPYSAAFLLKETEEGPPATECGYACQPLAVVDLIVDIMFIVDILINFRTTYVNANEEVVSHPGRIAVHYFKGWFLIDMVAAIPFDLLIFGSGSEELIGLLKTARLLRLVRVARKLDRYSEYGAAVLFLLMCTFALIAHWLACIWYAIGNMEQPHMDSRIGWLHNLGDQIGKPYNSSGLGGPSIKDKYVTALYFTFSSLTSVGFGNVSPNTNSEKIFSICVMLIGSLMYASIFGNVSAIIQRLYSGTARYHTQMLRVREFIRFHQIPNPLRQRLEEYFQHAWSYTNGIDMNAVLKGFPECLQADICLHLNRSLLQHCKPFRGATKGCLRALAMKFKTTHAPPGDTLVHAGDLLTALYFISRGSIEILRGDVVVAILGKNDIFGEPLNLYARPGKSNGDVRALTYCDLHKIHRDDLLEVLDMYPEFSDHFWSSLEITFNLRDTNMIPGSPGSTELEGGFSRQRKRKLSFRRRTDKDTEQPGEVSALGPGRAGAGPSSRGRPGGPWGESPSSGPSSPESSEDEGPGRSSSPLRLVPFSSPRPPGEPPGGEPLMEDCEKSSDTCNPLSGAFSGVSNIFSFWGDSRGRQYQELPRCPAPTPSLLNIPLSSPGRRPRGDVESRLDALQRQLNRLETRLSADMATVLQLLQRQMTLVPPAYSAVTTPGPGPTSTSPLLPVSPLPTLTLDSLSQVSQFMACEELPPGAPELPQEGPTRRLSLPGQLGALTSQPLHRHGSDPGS
Chain of CYP2C9 (P11712 whole entry): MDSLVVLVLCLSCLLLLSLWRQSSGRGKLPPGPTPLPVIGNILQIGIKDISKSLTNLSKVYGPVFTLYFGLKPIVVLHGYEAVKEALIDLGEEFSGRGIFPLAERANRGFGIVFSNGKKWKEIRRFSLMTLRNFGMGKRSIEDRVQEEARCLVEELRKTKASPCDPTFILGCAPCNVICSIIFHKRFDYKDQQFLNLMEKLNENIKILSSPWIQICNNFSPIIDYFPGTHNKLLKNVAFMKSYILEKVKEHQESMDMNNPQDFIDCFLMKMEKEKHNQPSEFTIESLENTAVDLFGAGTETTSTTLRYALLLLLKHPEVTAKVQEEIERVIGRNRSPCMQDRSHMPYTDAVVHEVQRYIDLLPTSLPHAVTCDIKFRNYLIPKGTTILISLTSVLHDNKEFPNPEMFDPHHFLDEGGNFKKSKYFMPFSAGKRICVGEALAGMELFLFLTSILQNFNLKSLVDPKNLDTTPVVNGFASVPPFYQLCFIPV

Cn1ncnc1[C@H]1c2n[nH]c(=O)c3cc(F)cc(c23)N[C@@H]1c1ccc(F)cc1 [BMN 673, (8S,9R)-5-fluoro-8-(4-fluorophenyl)-9-(1-methyl-1H-1,2,4-triazol-5-yl)-8,9-dihydro-2H-pyrido[4,3,2-de]phthalazin-3(7H)-one]
IC50 (MDA-MB-231): 1850 nM
off-rate (recombinant human PARP1): 0.000105 s⁻¹
on-rate (recombinant human PARP1): 368000 M⁻¹ s⁻¹
dissociation rate, times slower than that of veliparib (recombinant human PARP1; vs veliparib): ~40 times
tumor growth delay (LNCap xenograft): 22.8 days
IC50 [1, 12]: 5 nM
IC50 [1, 13]: 5 nM
CYP2C19 inhibition (CYP2C19): did not inhibit
IC50 (MRC-5 (Normal); [14]): 310 nM
potentiation of carboplatin anti-tumor effect in vivo (MX-1 tumor xenografts [2]; BMN 673 0.33 mg/kg oral once-a-day 5 or 8 days plus carboplatin 35 mg/kg IP): significant potentiation
tolerability (MX-1 tumor xenografts [2]; BMN 673 0.33 mg/kg plus carboplatin 35 mg/kg IP): No animal lethality or significant body weight loss
effect of combining with platinum drugs in vitro [3]: clearly additive effect
remaining after incubation in liver microsomes [4]: more than 90%
CYP3A4 inhibition (CYP3A4): did not inhibit
effect on PARG activity [5]: no effect
potentiation of the cytotoxic effect of SN38 (MX-1 cells): potentiated
EC50 ([6]; read-out: Cellular PAR Synthesis EC50): 2.5 nM
IC50 ([6]; read-out: intracellular PAR formation IC50): 2.5 nM
effect on tumor growth (MX-1 tumor xenografts [7]; 0.1 mg/kg oral once daily, after extended treatment (>21 days)): small effect on tumor growth
tumor re-establishment after dosing ceased (MX-1 tumor xenografts [7]; 0.165 mg/kg/dose BID x 28, followed eight weeks after dosing ceased): none of the mice had tumor re-growth; also recorded: no re-establishment of tumor
mice achieving complete response (CR) (MX-1 tumor xenografts [7]; 0.165 mg/kg/dose oral BID, 28 days): all 6 mice and 6/6
tolerability (MX-1 tumor xenografts [7]; 0.33 mg/kg and 0.1 mg/kg, 28 consecutive once daily oral doses): well tolerated
mice achieving complete response (CR, tumor impalpable) (MX-1 tumor xenografts [7]; 0.33 mg/kg oral once-a-day, 28 days): four CRs out of six
remaining after incubation in liver microsomes [8]: more than 90%
IC50 (PC-3 (PTEN deficient)): 4 nM
tumor growth delay (MDA-MB-468 xenograft; 0.33 mg/kg oral QDx28, vs vehicle-treated control): 15.9 days
effectiveness of 0.165 mg/kg/dose BIDx28 vs 0.33 mg/kg/dose QDx28 (MDA-MB-468 xenograft; MDA-MB-468 xenograft): slightly more effective
CYP2D6 inhibition (CYP2D6): did not inhibit
intratumoral PAR level (MX-1 tumor PAR levels; [15]): drastically decreased
intratumoral PAR level (MX-1 tumor PAR levels; [16]): drastically decreased
intratumoral PAR level (MX-1 tumor PAR levels; [17]): Partial recovery
hERG inhibition [9]: no significant inhibition
maximum average weight loss (MX-1 tumor xenografts [10]; BMN 673 0.033 mg/kg plus cisplatin 6 mg/kg IP): 3%
maximum average weight loss (MX-1 tumor xenografts [10]; BMN 673 0.1 mg/kg plus cisplatin 6 mg/kg IP): 5%
maximum average weight loss (MX-1 tumor xenografts [10]; BMN 673 0.33 mg/kg plus cisplatin 6 mg/kg IP): 6%
maximum average weight loss (MX-1 tumor xenografts [10]; BMN 673 1 mg/kg plus cisplatin 6 mg/kg IP): 11%
animal deaths (MX-1 tumor xenografts [10]; BMN 673 1 mg/kg plus cisplatin, Day 20): One animal died
growth of MX-1 tumor xenografts (MX-1 tumor xenografts [10]; BMN 673 oral once daily days 1-8 plus cisplatin 6 mg/kg IP): significantly inhibited in a dose-dependent manner
CYP2C9 inhibition (CYP2C9): did not inhibit
potentiation of TMZ cytotoxicity (LoVo cells; combined with 200 μM TMZ): significant potentiation
CYP1A2 inhibition (CYP1A2): did not inhibit
remaining after incubation in liver microsomes [11]: more than 90%

O=C(c1cc(Cc2n[nH]c(=O)c3ccccc23)ccc1F)N1CCN(C(=O)C2CC2)CC1 [Olaparib, olaparib]
IC50 (MDA-MB-231): 6410 nM
IC50 [1, 12]: 259 nM
IC50 [1, 13]: 259 nM
IC50 (MRC-5 (Normal); [14]): 5830 nM
IC50 (PC-3 (PTEN deficient)): 787 nM
intratumoral PAR level (MX-1 tumor PAR levels; [15]): significant decrease
intratumoral PAR level (MX-1 tumor PAR levels; [16]): partial recovery
intratumoral PAR level (MX-1 tumor PAR levels; [17]): complete recovery
cisplatin sensitizing effect (MX-1 tumor xenografts [10]; olaparib 100 mg/kg oral once-a-day day 1 to 8 plus cisplatin 6 mg/kg): equivalent to the lowest dose of BMN 673
maximum body weight loss (MX-1 tumor xenografts [10]; olaparib 100 mg/kg plus cisplatin 6 mg/kg IP): 3%

CNCc1ccc(-c2[nH]c3cc(F)cc4c3c2CCNC4=O)cc1 [Rucaparib, rucaparib]
IC50 (MDA-MB-231): 5530 nM
IC50 (MRC-5 (Normal); [14]): 8530 nM

Cn1nnc2c(C(N)=O)ncn2c1=O [TMZ, temozolomide, reference compound]
inhibition at 200 µM (LoVo cells; Homo sapiens, 120 h, read-out: cell growth inhibition): ~15%

C[C@]1(c2nc3c(C(N)=O)cccc3[nH]2)CCCN1 [Veliparib, veliparib]
off-rate (recombinant human PARP1): 0.0041 s⁻¹
on-rate (recombinant human PARP1): 1.74e+06 M⁻¹ s⁻¹
IC50 ([1]; read-out: Capan-1 Cytotoxicity IC50, single agent, 50% cell survival reduction): > 10000 nM
IC50 ([1]; read-out: SF50 Capan-1 (BRCA2 deficient), 2-D cytotoxicity assay): > 10000 nM
IC50 (MRC-5 (Normal); read-out: SF50 MRC-5 (Normal), 2-D cytotoxicity assay): > 10000 nM

N.N.[Cl][Pt][Cl] [cisplatin, reference compound]
maximum average body weight loss (MX-1 tumor xenografts [10]; cisplatin alone, 6 mg/kg IP): 3%
